From patent US10668049B2, “Methods of treating cognitive decline with transforming growth factor beta inhibitors” (The Regents of the University of California, priority 2008, dated 2020) come the findings set out here.

The assay concerns neuronal-enriched culture. As to the kind of experiment: RT-PCR of neuronal-enriched cultures exposed to albumin. It is filed as cell-based, rat. As to conditions: albumin for 24 h. How it is done:
Primary neuronal cortical cultures were prepared from embryonic day 18 rats as reported previously (Kaufer et al., 2004). Briefly, cells were dissociated with a papain solution for 20 min at 37° C., After the removal of the papain solution, the tissue was resuspended in growth medium [MEM with Earle's salts containing 2.5% B27 supplement, 0.1% mito serum extender, 5% fetal bovine serum (FBS), 20 mM glucose, and 5 mM L-glutamine] and dissociated by mechanical trituration. The cells were plated, and after 4 h in vitro the cell culture medium was replaced with neurobasal medium supplemented with 2% B27 supplement and 0.5 mM GlutaMAX™. The cells were maintained in 5% CO2 at 37° C. After 7 days in vitro, cytosine arabinofuranoside (AraC) (10 μM) was added to the cultures. After 10 days in vitro, the cells were incubated with 0.4 mM albumin for 24 h at 37° C. For astrocytic cultures, astrocytcs were isolated from the cerebral cortices of PO rat pups. Cells were dissociated with papain and mechanical trituration. The cells were cultured in high-glucose Dulbecco's modified eagle medium supplemented with 10% FBS and 1% penicillin/streptomycin at 37° C. and in 5% C02 (medium was replaced every 3-4 days). After 10 days in vitro, the culture medium was replaced with serum-free high-glucose DMEM (containing 1% penicillin/streptomycin) for 18 h. The cells were then incubated in scrum-free medium containing 0.4 mM albumin for 24 h at 37° C. […]
Total RNA was isolated from the somatosensory cortices of animals treated with DOC or albumin (24 h treatment; n=3) or from primary cultures (astrocytic and neuronal, n=3 independent experiments). Expression levels were determined by real-time reverse transcriptase-PCR (RT-PCR) with an iQ5 detection system (Bio-Rad, Hercules, Calif.) using gene-specific primer pairs. RT-PCR data were analyzed using the PCR Miner program (Zhao and Fernald, 2005), and fold changes in gene expression were represented relative to sham-operated controls (in-vivo samples) or serum-deprived controls (in-vitro, samples). […]

Consider “albumin: bovine serum albumin, used to induce epileptogenesis”, for which the “GS mRNA levels” value is listed as “downregulation”; the “Gjb6 mRNA levels” value is “upregulation”; the “expression levels of the same transcripts (except GS and Gjb6)” value is “No significant differences”.
